{"source": "paper PMC10287695", "about": "“Non-covalent inhibitors of thioredoxin glutathione reductase with schistosomicidal activity in vivo” (Nature Communications, 2023)", "key": {"Human GR": {"target": "T1, Human GR (Homo sapiens, UniProt P00390)", "T1 construct": "made in house", "T1 sequence (P00390 44-522)": "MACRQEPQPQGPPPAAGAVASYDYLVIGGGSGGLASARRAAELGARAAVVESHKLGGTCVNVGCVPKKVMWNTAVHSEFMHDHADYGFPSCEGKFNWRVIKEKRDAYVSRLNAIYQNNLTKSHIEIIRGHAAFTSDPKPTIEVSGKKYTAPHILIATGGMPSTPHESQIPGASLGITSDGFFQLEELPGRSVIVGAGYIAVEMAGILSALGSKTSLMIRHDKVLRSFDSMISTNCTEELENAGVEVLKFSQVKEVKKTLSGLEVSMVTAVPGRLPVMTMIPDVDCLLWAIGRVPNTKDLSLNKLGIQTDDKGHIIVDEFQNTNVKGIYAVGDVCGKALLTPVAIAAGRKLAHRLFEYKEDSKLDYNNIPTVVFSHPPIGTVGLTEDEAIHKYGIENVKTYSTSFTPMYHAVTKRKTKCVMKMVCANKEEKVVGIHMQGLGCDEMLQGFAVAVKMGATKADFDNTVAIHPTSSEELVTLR", "experiment": "Human GR enzyme inhibition (GSSG reduction, NADPH oxidation)", "assay_type": "biochemical", "settings": "for inhibition at 15 µM / inhibition at 30 µM / inhibition at 66.7 µM: read-out: hGR % inhibition", "description": "Recombinant TGR, human TrxR1, B. malayi (Bm)TrxR and human GR proteins were expressed and purified as described[20],[69],[79]. The codon optimized sequence for P. falciparum (PfTrxR, https://www.ncbi.nlm.nih.gov/protein/CAA60574.1/) with an N-terminal 6-His tag was synthesized and inserted into pET15b (GenScript) and expressed in BL21 (DE3) cells and purified as described for human GR[20]. TGR and TrxR enzyme inhibition assays were performed in triplicate at 25 °C as described[20] in 0.1 M potassium phosphate (pH 7.4), 10 mM EDTA, 100 µM NADPH and 0.01% Tween-20. TGR, human TrxR1 and BmTrxR (all at 4 nM) and PfTrxR (50 nM) were preincubated with the compounds for 15 min. The reaction was started with addition of an equal volume of DTNB (6 mM) and NADPH (100 µM) and the increase in A412 during the first 3 min was recorded. […] […] Activity was initiated with the addition of 1 mM GSSG and 100 μM NADPH and initial rates of NADPH oxidation were monitored at 340 nm. The reactions were done in triplicate. The IC50 was calculated in GraphPad Prism."}, "S. mansoni TGR": {"target": "T2, S. mansoni TGR (Schistosoma mansoni, UniProt Q962Y6)", "T2 construct": "made in house", "T2 sequence (Q962Y6 1-598)": "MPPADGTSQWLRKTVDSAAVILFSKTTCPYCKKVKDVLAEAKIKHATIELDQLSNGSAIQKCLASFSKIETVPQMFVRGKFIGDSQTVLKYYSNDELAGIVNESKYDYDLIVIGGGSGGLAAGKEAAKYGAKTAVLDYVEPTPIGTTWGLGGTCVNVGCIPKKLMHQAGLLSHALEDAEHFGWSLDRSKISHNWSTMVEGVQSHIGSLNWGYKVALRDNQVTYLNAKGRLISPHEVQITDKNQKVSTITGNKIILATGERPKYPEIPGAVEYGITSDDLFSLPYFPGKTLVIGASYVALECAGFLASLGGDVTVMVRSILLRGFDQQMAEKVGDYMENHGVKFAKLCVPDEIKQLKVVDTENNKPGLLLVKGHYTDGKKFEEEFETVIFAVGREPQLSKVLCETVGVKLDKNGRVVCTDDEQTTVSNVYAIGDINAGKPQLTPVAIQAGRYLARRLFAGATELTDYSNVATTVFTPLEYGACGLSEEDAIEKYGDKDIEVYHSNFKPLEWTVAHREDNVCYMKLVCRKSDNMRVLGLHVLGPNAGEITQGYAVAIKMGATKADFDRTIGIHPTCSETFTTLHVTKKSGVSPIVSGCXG", "experiment": "S. mansoni TGR enzyme inhibition (DTNB reduction)", "assay_type": "biochemical", "settings": "for S. mansoni TGR IC50: 15 min preincubation (enzyme + 100 µM NADPH + compound); for inhibition at 15 µM / inhibition at 30 µM / inhibition at 66.7 µM: read-out: TGR % inhibition; for S. mansoni TGR inhibition (%) at 66.7 µM: 6 h preincubation (enzyme + 100 µM NADPH + compound)", "description": "(§1) Recombinant TGR, human TrxR1, B. malayi (Bm)TrxR and human GR proteins were expressed and purified as described[20],[69],[79]. The codon optimized sequence for P. falciparum (PfTrxR, https://www.ncbi.nlm.nih.gov/protein/CAA60574.1/) with an N-terminal 6-His tag was synthesized and inserted into pET15b (GenScript) and expressed in BL21 (DE3) cells and purified as described for human GR[20]. TGR and TrxR enzyme inhibition assays were performed in triplicate at 25 °C as described[20] in 0.1 M potassium phosphate (pH 7.4), 10 mM EDTA, 100 µM NADPH and 0.01% Tween-20. […] The reaction was started with addition of an equal volume of DTNB (6 mM) and NADPH (100 µM) and the increase in A412 during the first 3 min was recorded. […] The reaction was preincubated for 15 min. Activity was initiated with the addition of 1 mM GSSG and 100 μM NADPH and initial rates of NADPH oxidation were monitored at 340 nm. The reactions were done in triplicate. The IC50 was calculated in GraphPad Prism."}, "Human TrxR1": {"target": "T3, Human TrxR1 (Homo sapiens, UniProt Q16881)", "T3 construct": "made in house", "T3 sequence (Q16881 1-499 isoform Q16881-5)": "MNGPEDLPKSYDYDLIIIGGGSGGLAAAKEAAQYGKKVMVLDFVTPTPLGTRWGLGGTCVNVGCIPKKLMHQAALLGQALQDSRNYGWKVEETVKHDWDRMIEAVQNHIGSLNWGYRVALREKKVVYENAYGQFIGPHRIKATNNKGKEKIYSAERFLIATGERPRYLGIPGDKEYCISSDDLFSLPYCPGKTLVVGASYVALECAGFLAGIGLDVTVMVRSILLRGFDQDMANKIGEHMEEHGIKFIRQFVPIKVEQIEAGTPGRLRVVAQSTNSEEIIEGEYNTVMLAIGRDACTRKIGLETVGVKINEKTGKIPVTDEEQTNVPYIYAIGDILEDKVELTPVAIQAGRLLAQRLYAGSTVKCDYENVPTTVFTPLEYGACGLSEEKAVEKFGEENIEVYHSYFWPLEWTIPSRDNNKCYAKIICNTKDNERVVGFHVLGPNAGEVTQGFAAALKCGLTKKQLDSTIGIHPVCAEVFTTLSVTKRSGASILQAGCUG", "experiment": "Human TrxR1 enzyme inhibition (DTNB reduction)", "assay_type": "biochemical", "description": "as §1"}, "Vero cells": {"system": "Vero cells", "experiment": "Cytotoxicity in mammalian cells (Cell Titer Glo)", "assay_type": "cell-based", "settings": "24-hour exposure", "description": "Following overnight incubation, formulated DMSO-compound stock solutions were diluted with DMEM at <1% DMSO final concentrations. […] Vero cells treated similarly with different concentrations of PZQ, MZM and AF (Cayman Chemicals) were used as positive controls."}}, "note": "pIC50: −log10 of the molar value. Where two headings read alike, the source gives them in different places. Marks after values point to notes of the source that are not given here."}
{"smiles": "C[C@@H]1[C@H]2C[C@@H](C[C@H]1NCc1cc(-c3ccccc3)[nH]n1)C2(C)C", "note": "[Compound 11]", "values": [{"measurement": "Human GR (inhibition at 66.7 µM)", "setting": "Human GR", "value": "n.i."}, {"measurement": "inhibition at 15 µM", "setting": "Human GR; 15 minutes pre-incubation", "value": -0.832, "unit": "%"}, {"measurement": "inhibition at 30 µM", "setting": "Human GR; 15 minutes pre-incubation", "value": -1.45, "unit": "%"}, {"measurement": "inhibition at 66.7 µM", "setting": "Human GR; 15 minutes pre-incubation", "value": -1.01, "unit": "%"}, {"measurement": "inhibition at 15 µM", "setting": "Human GR; 6 hours pre-incubation", "value": -0.778, "unit": "%"}, {"measurement": "inhibition at 30 µM", "setting": "Human GR; 6 hours pre-incubation", "value": -1.99, "unit": "%"}, {"measurement": "inhibition at 66.7 µM", "setting": "Human GR; 6 hours pre-incubation", "value": -2.81, "unit": "%"}, {"measurement": "S. mansoni TGR IC50", "setting": "S. mansoni TGR", "value": "n.i.^e"}, {"measurement": "inhibition at 15 µM", "setting": "S. mansoni TGR; 15 minutes pre-incubation", "value": -0.793, "unit": "%"}, {"measurement": "inhibition at 30 µM", "setting": "S. mansoni TGR; 15 minutes pre-incubation", "value": 0.411, "unit": "%"}, {"measurement": "inhibition at 66.7 µM", "setting": "S. mansoni TGR; 15 minutes pre-incubation", "value": 1.81, "unit": "%"}, {"measurement": "inhibition at 15 µM", "setting": "S. mansoni TGR; 6 hours pre-incubation", "value": 0.749, "unit": "%"}, {"measurement": "inhibition at 30 µM", "setting": "S. mansoni TGR; 6 hours pre-incubation", "value": 1.2, "unit": "%"}, {"measurement": "inhibition at 66.7 µM", "setting": "S. mansoni TGR; 6 hours pre-incubation", "value": 5.65, "unit": "%"}, {"measurement": "S. mansoni TGR inhibition (%) at 66.7 µM", "setting": "S. mansoni TGR", "value": "n.i.^e"}]}
{"smiles": "C[C@@H]1[C@H]2C[C@@H](C[C@H]1NCc1nc3ccccc3n1C)C2(C)C", "note": "[Compound 12]", "values": [{"measurement": "Human GR (inhibition at 66.7 µM)", "setting": "Human GR", "value": "n.i."}, {"measurement": "inhibition at 66.7 µM", "setting": "Human TrxR1; 66.7 µM, 6 h preincubation, read-out: Human TrxR1 IC50 (µM) or inhibition (%) at 66.7 µM: inhibition", "value": 28.6, "unit": "%"}, {"measurement": "pIC50", "setting": "Human TrxR1; 15 min preincubation (enzyme + 100 µM NADPH + compound), read-out: Human TrxR1 IC50", "value": "< 4.18"}, {"measurement": "S. mansoni TGR IC50", "setting": "S. mansoni TGR", "value": "n.i.^e"}, {"measurement": "S. mansoni TGR inhibition (%) at 66.7 µM", "setting": "S. mansoni TGR", "value": "n.i.^e"}]}
{"smiles": "C[C@@H]1N=C(c2ccccc2Cl)c2cc([N+](=O)[O-])ccc2NC1=O", "note": "[MZM, meclonazepam, reference compound]", "values": [{"measurement": "Human TrxR1 IC50 (µM) or inhibition (%) at 66.7 µM: inhibition", "setting": "Human TrxR1; 66.7 µM, 6 h preincubation", "value": "n.i.^e"}, {"measurement": "S. mansoni TGR inhibition (%) at 66.7 µM", "setting": "S. mansoni TGR", "value": "n.i.^e"}, {"measurement": "LD50 ex vivo VERO", "setting": "Vero cells", "value": ">50^a µM"}]}
{"smiles": "O=C(C1CCCCC1)N1CC(=O)N2CCc3ccccc3C2C1", "note": "(centres unmarked) [PZQ, praziquantel]", "values": [{"measurement": "Human TrxR1 IC50 (µM) or inhibition (%) at 66.7 µM: inhibition", "setting": "Human TrxR1; 66.7 µM, 6 h preincubation", "value": "n.i.^e"}, {"measurement": "S. mansoni TGR inhibition (%) at 66.7 µM", "setting": "S. mansoni TGR", "value": "n.i.^e"}, {"measurement": "LD50 ex vivo VERO", "setting": "Vero cells", "value": ">50^a µM"}]}
